Source: PubChem BioAssay (NCI)
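Step 1: Grow cells in 96-well plates. Step 2: Expose to compound for 48 hours at 5 concentrations. Step 3: Interpolate endpoints linearly; if unreached, use highest concentration. TGI is the concentration that stops growth completely.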

Assays:
Test in all cases: growth of human tumour cells (NCI), 48 h
SN12C renal = tested on: SN12C renal
SK-MEL-2 melanoma = tested on: SK-MEL-2 melanoma
HCC-2998 colon = tested on: HCC-2998 colon
HT29 colon = tested on: HT29 colon
HOP-62 NSCLC = tested on: HOP-62 NSCLC
SK-MEL-28 melanoma = tested on: SK-MEL-28 melanoma
A498 renal = tested on: A498 renal
786-0 renal = tested on: 786-0 renal
SK-MEL-5 melanoma = tested on: SK-MEL-5 melanoma
K-562 leukemia = tested on: K-562 leukemia
CCRF-CEM leukemia = tested on: CCRF-CEM leukemia
CAKI-1 renal = tested on: CAKI-1 renal
RPMI-8226 leukemia = tested on: RPMI-8226 leukemia
UACC-257 melanoma = tested on: UACC-257 melanoma
EKVX NSCLC = tested on: EKVX NSCLC
NCI-H522 lung = tested on: NCI-H522 lung
SNB-19 CNS = tested on: SNB-19 CNS
T-47D breast = tested on: T-47D breast
NCI/ADR-RES ovarian = tested on: NCI/ADR-RES ovarian

Compound | TGI (SN12C renal) | TGI (SK-MEL-2 melanoma) | TGI (HCC-2998 colon) | TGI (HT29 colon) | TGI (HOP-62 NSCLC) | TGI (SK-MEL-28 melanoma) | TGI (A498 renal) | TGI (786-0 renal) | TGI (SK-MEL-5 melanoma) | TGI (K-562 leukemia) | TGI (CCRF-CEM leukemia) | TGI (CAKI-1 renal) | TGI (RPMI-8226 leukemia) | TGI (UACC-257 melanoma) | TGI (EKVX NSCLC) | TGI (NCI-H522 lung) | TGI (SNB-19 CNS) | TGI (T-47D breast) | TGI (NCI/ADR-RES ovarian)
CC(=O)O[C@H]1CCN2C(=O)C=CC(OCc3ccccc3)C12 (some centres not stated) | > 100 µM | > 100 µM | > 100 µM | > 100 µM | > 100 µM | > 100 µM | > 100 µM | > 100 µM | > 100 µM | > 100 µM | > 100 µM | > 100 µM | > 100 µM | > 100 µM | > 100 µM |  |  |  | 
COc1cc(CC2c3cc(OC)c(OC)cc3CCN2C)ccc1O (configuration not stated) | > 100 µM | > 100 µM | > 100 µM | > 100 µM | > 100 µM | > 100 µM | > 100 µM | > 100 µM | > 100 µM | > 100 µM | > 100 µM | > 100 µM | > 100 µM | > 100 µM | > 100 µM | > 100 µM | > 100 µM |  | 
CC(=O)Nc1ccc(-c2nnc(SCC(=O)Nc3cccc(Cl)c3)o2)cc1 | 31.6 µM | 70.4 µM | 37.6 µM | 31 µM | 36.2 µM | 33.8 µM | 34 µM | 23.7 µM | 29.1 µM | > 100 µM | > 100 µM | 33.2 µM | > 100 µM | 43.6 µM | 45 µM | 23.5 µM | 39.4 µM |  | 
CC[C@]12C=CCN3CCC4(c5cc([C@@]6(C(=O)OC)CC7CN(CCc8c6[nH]c6ccccc86)C[C@@H]6CCCC[C@H]76)c(OC)cc5N(C)C4[C@](O)(C(=O)OC)C1OC(C)=O)[C@@H]32 (some centres not stated) | 18.3 µM | 7.85 µM | < 0.01 µM | < 0.01 µM | 14.4 µM | 17.1 µM |  | 12.5 µM | < 0.01 µM |  | > 37.1 µM | 16.7 µM | 32.1 µM |  | 22.8 µM | < 0.01 µM | 18.1 µM | 38.5 µM | 0.0886 µM
CC(=O)OCCOCNC(=S)N/N=C/c1cc([N+](=O)[O-])ccc1O | > 100 µM | > 100 µM | > 100 µM | > 100 µM | > 100 µM | > 100 µM | > 100 µM | > 100 µM | > 100 µM | > 100 µM | > 100 µM |  |  | > 100 µM | > 100 µM | > 100 µM | > 100 µM |  | 
Cc1ccc(OCC2OC(n3cnc4nc(Nc5ccc(Cl)c(Cl)c5)nc(Cl)c43)CC2Oc2ccc(C)cc2)cc1 (configuration not stated) | > 100 µM | > 100 µM | > 100 µM | > 100 µM | > 100 µM | > 100 µM |  | > 100 µM | > 100 µM | > 100 µM | > 100 µM | > 100 µM | > 100 µM | > 100 µM | > 100 µM |  | > 100 µM | > 100 µM | > 100 µM
